Assays:
[1] = test system: bovine choroidal endothelial (BCE) cells; test: BCE endothelial cell proliferation assay (alamar blue); format: cell-based
Experimental: The bovine endothelial proliferation assays were performed essentially as previously described (63, 64). BCE (1×10^3 cells/well) or BRE (5×10^2 cells/well) cells were seeded in 96-well plates in the culture medium (DMEM-low glucose supplemented with 10% BCS, 2 mM glutamine and antibiotics) plus testing materials with a total volume of 200 μl per well. BAE cells were plated in 96-well plates at a density of 2×10^3 cells in the culture medium (DMEM-low glucose supplemented with 1% BCS and antibiotics) plus testing material with a total volume of 200 μl per well. HRME cells were seeded at a density of 1×10^3 cells/well in gelatin-coated 96-well plates in assay medium (DMEM-low glucose supplemented with 20% FBS and antibiotics) plus testing materials to make a total volume 200 μl per well. For assays involving antibodies or small-molecule inhibitors, inhibitors or vehicle controls were first added and then test materials were added one hour later. After 6 days (unless otherwise specified), cells were incubated with alamar blue for 4 h. Fluorescence was measured at 530 nm excitation wavelength and 590 nm emission wavelength. Each experiment was carried out in duplicate/triplicate and repeated at least three times.

[2] = test system: choroid capillaries of NaIO3-treated mice; test: Sodium iodate (NaIO3) model, choroid capillary recovery; format: in vivo, mouse; settings: NaIO3 20 mg/kg i.v.; intravitreal LIF 50 ng, CT-1 different doses, OSM 10 ng; OCT-A
Experimental: Eight-week-old C57BL/6J mice were anesthetized with ketamine/xylazine cocktail. Sterilized NaIO3 was administered as a single intravenous injection (20 mg/kg body weight) (28) (29). Control mice were injected with PBS. PBS, LIF (50 ng), CT-1 (different doses) or OSM (10 ng) was injected intravitreally in five-mice groups. Five, seven and nine days after injection, choroid capillaries were monitored by OCT-A system. 9 days after injection, mice were killed and eyes were harvested for H&E and immunofluorescent staining. Avascular area in choroid capillaries was analyzed using ImageJ.

guinea pig skin = test: Vessel permeability in guinea pig skin (Evans blue); format: in vivo; settings: intradermal 1, 5, 25, 100, 200 ng per injection site
Experimental: In FIG. 5A, Hairless male guinea pigs (Crl: HA-Hrhr/IAF, 450-500 g, Charles River Laboratories) were anesthetized by intraperitoneal (i.p.) administration of xylazine (5 mg/kg) and ketamine (75 mg/kg). The animals then received an intravenous injection (penile vein) of 1 ml of 1% Evans blue dye. After 15 min, intradermal injections (0.05 ml/per site) of different doses (1, 5, 25, 100, 200 ng per injection site) of rhLIF in PBS were administrated into the area of trunk posterior to the shoulder. 0.05 ml of PBS and 25 ng of VEGF in 0.05 ml of PBS were injected as negative and positive controls. 30 min after the intradermal injections, animals were euthanized by i.p. injection of pentobarbital (200 mg/kg). Skin tissues were dissected from the connective tissues and photographed, n=2. In FIG. 5B, Vascular leakage is shown in mouse retina. LIF (10 ng) or VEGF (100 ng) was injected in the vitreous cavity (0.1% BSA/PBS as control). TRITC-dextran was used to indicate the vascular leakage. Retinal vasculature was labeled by FITC-lectin, n=5.

mouse retina = test: Measurement of vascular leakage in retina (TRITC-dextran); format: in vivo; settings: mice, LIF 10 ng intravitreally
Experimental: Recombinant human VEGF (100 ng) or LIF (10 ng) was injected into the vitreous (0.1% BSA PBS solution as vehicle control). TRITC-dextran (50 mg/ml, 100 ul) was then injected into the tail vein. Ten minute later, animals were sacrificed and eyes were enucleated. Retina flat mount was imaged under microscope (65).

BCE cells = test: Gene expression in LIF-treated BCE cells (RNA-seq, qRT-PCR); format: cell-based, bovine
Experimental: BCE and BAE cells, after the indicated treatments, were lysed with Trizol reagent (Invitrogen, CAT #15596026) and subjected to RNA extraction following manufacturer's instructions. RNA concentrations were determined with Nanodrop 2000 (ThermoFisher Scientific) and 1 μg of total RNAs were reverse-transcribed to cDNAs using the High-Capacity cDNA Reverse Transcription Kit (Applied Biosystems, CAT #4368814). Equal amounts (generally 10 ng/reaction) of cDNAs were subjected to qRT-PCR analyses using the TaqMan Fast Advanced Master Mix (Applied Biosystems, CAT #4444557) and the ViiA7 Real-time PCR system. Relative mRNA levels of the examined genes were normalized to the internal control RPLP0 (Ribosomal Protein Lateral Stalk Subunit P0), determined by comparing with control sample group, and reported as fold changes. TaqMan gene expression assay probes were used: bovine RPLP0 (Bt03218086_ml), bovine STAT3 (Bt03259865_ml), bovine CTSL1 (Bt03257307_ml and Bt03257309_ml), bovine CTSB (Bt03259161_ml), bovine MYC (Bt03260377_ml), bovine JunB (Bt03246919_s1), bovine CCNA2 (Bt03240503_g1), bovine CCNB1 (Bt03237853_g1), and bovine PIM1 (Bt03212957_ml). The experiment was carried out in triplicate and repeated three times.

LIF: recombinant human leukemia inhibitory factor, a member of the IL-6 family of cytokines
stimulation of BCE cell growth (mitogenic activity) [1]: stimulated growth of BCE cells | avascular areas in choroid compared to PBS group [2]: reduced avascular areas | vascular permeability in guinea pig skin (guinea pig skin): does not induce vascular permeability | retinal microvascular leakage (mouse retina): does not induce retinal microvascular leakage | upregulation of IGFBP3 (BCE cells; BCE cells incubated with LIF for 6 hours, RNA-seq): not in BCE cells | MYC expression (BCE cells; BCE cells, LIF treatment): upregulation | cathepsin L mRNA (CTSL) levels (BCE cells; BCE cells, vehicle or LIF, qRT-PCR): not detectable

Reference: patent publication US20220105157A1, “Compositions and Methods for Promoting Angiogenesis in the Eye” (The Regents of the University of California, priority 2019, published 2022)
